“And” between values parts separate entries of the source, which are not always exact repeats. Identical values can stand only once.
How the values were obtained:
[1] = system: CFA induced inflammatory pain in the rat; experiment: Complete Freund's Adjuvant (CFA) induced inflammatory pain model; format: in vivo
Method: In this rat model of inflammatory pain, 100 uL of CFA diluted 1:1 with phosphate buffered saline was injected into the subplantar region of the right hind paw on Day 1. On day 3, test compounds were administered orally and rats were assessed for their reaction to a mechanical stimuli applied via an Analgesy® meter. Injection of CFA increased the rats' reactivity to painful stimuli and this was reflected in a decrease in the amount of pressure they could tolerate prior to withdrawing their paw from the apparatus (hyperalgesia). An anti-hyperalgesic activity of the test compound was denoted by an increase in the amount of pressure they can tolerate prior to withdrawing their paw from the apparatus. The mean±SEM for each treatment group was determined and a Dunnett test was applied for comparison between vehicle and treated groups. Differences were considered significant at P<0.05. (see Bertorelli et al. 1999 Brit Journ Pharmacol 128:1252).

[2] = system: PBQ-induced writhing in the mouse; experiment: Phenylbenzoquinone-induced (PBQ) writhing model

COc1ccc(C(=O)c2cc3cc(C)n(CCN4CCOCC4)c3s2)cc1 [Compound I-36]
Post CFA PWT (grams) ([1]; 3 mg/kg PO): 114.3 ± 11.8 grams
Post CFA PWT (grams) ([1]; 10 mg/kg PO): 90.7 ± 10.4 grams
Post CFA PWT (grams) ([1]; 30 mg/kg PO): 157.3 ± 11.4 grams
Post CFA PWT (grams) ([1]; 56 mg/kg PO): 191 ± 12.1 grams
Number of Writhes ([2]; Dose 3, PO): 14.5 ± 1.59
Number of Writhes ([2]; Dose 10, PO): 12.1 ± 2.8
Number of Writhes ([2]; Dose 30, PO): 7.3 ± 2.5

Cc1cc2cc(C(=O)c3cccc(Cl)c3Cl)sc2n1CCCNS(C)(=O)=O [Compound I-37]
Number of Writhes ([2]; Dose 30, PO): 13.0 ± 1.65

Cc1cc2cc(C(=O)c3cccc(Cl)c3Cl)sc2n1S(=O)(=O)N(C)C [Compound I-41]
Number of Writhes ([2]; Dose 30, IP): 5.91 ± 2.04

CCS(=O)(=O)n1c(C)cc2cc(C(=O)c3cccnc3Cl)sc21 [Compound I-43]
Number of Writhes ([2]; Dose 30, PO): 13.8 ± 1.88

COc1ccc(C(=O)c2cc3cc(C)n(CCCNS(C)(=O)=O)c3s2)cc1 [Compound I-44]
Post CFA PWT (grams) ([1]; 10 mg/kg PO): 164.4 ± 8.4 grams
Post CFA PWT (grams) ([1]; 30 mg/kg PO): 153.7 ± 10.7 grams
Post CFA PWT (grams) ([1]; 56 mg/kg PO): 150 ± 13.8 grams
Number of Writhes ([2]; Dose 3, PO): 13.9 ± 1.4
Number of Writhes ([2]; Dose 10, PO): 9.4 ± 2.6
Number of Writhes ([2]; Dose 30, PO): 8.25 ± 2.54 and 9.7 ± 1.7

COc1ccc(C(=O)c2cc3cc(C)n(CCN4CCOCC4)c3s2)cn1 [Compound I-58]
Post CFA PWT (grams) ([1]; 60 mg/kg PO): 170.3 ± 19.7 grams
Number of Writhes ([2]; Dose 30, IP): 1.1 ± 0.38
Number of Writhes ([2]; Dose 30, PO): 15.9 ± 2.7

COc1ccc(C(=O)c2cc3cc(C)n(CCN4CCCCC4)c3s2)cc1 [Compound I-78]
Post CFA PWT (grams) ([1]; 60 mg/kg PO): 181.7 ± 22.3 grams

CCOc1ccc(C(=O)c2cc3cc(C)n(CCN4CCOCC4)c3s2)c(F)c1 [Compound I-89]
Post CFA PWT (grams) ([1]; 60 mg/kg PO): 178.7 ± 19.6 grams

CCOc1ccc(C(=O)c2cc3cc(C)n(CCCNS(C)(=O)=O)c3s2)c(F)c1 [Compound I-95]
Post CFA PWT (grams) ([1]; 60 mg/kg PO): 111.7 ± 20.5 grams

Cc1cc2cc(C(=O)c3ccc(OC(C)C)cc3)sc2n1CCN1CCOCC1 [Compound I-111]
Post CFA PWT (grams) ([1]; 60 mg/kg PO): 140.7 ± 13.7 grams

Cc1ccc(C(=O)c2cc3cc(C)n(CCN4CCOCC4)c3s2)cc1 [Compound I-124]
Post CFA PWT (grams) ([1]; 60 mg/kg PO): 196.7 ± 27.3 grams

COc1ccc(C(=O)c2cc3cc(C)n(CC4CCOCC4)c3s2)cn1 [Compound I-144]
Number of Writhes ([2]; Dose 3, PO): 5.04 ± 1.8
Number of Writhes ([2]; Dose 10, PO): 3.24 ± 1.08
Number of Writhes ([2]; Dose 30, PO): 1.8 ± 0.72

From patent US20130029970A1 (priority 2009, published 2013)
